This passage reports GI50 and TGI results from PubChem BioAssay (NCI).

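Grown in 96-well plates, cells were treated for 48 hours with each compound at five concentrations. Insufficient inhibition: endpoint recorded as highest concentration tested. GI50 = concentration required for 50% inhibition of growth. At the TGI there is no net growth.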

Test systems include A498 renal; DU-145 prostate; HOP-92 NSCLC; IGROV1 ovarian; K-562 leukemia; LOX IMVI melanoma; OVCAR-5 ovarian; OVCAR-8 ovarian; PC-3 prostate; SR leukemia.
Holding throughout (test): DTP human tumour cell line panel, 48 h

A word on the GI50: it is the concentration that inhibits growth by half. The term TGI denotes the concentration at which net growth stops. Read a low TGI as more potent growth arrest. As for `COc1ccc(Cn2cc3c(c2)-c2oncc2CC3)cc1`, the GI50 in the test with A498 renal was 1.74 µM; in the test on DU-145 prostate it was 4.46 µM; in the test with HOP-92 NSCLC, 5.14 µM; with IGROV1 ovarian, 4.56 µM; in the test with K-562 leukemia it was 2.4 µM; with LOX IMVI melanoma, 6.99 µM. The GI50 in the test with OVCAR-5 ovarian was 8.6 µM; in the test on OVCAR-8 ovarian, 9.34 µM; in the test on PC-3 prostate, 5.26 µM; in the test with SR leukemia, 1.41 µM. Moreover, the TGI is 9.74 µM in the test with A498 renal; 34.5 µM in the test with DU-145 prostate; 37.3 µM with HOP-92 NSCLC; above 100 µM with IGROV1 ovarian; above 66.5 µM in the test on K-562 leukemia; above 100 µM with LOX IMVI melanoma. The TGI with OVCAR-5 ovarian is above 100 µM; in the test on OVCAR-8 ovarian, above 100 µM; in the test on PC-3 prostate, 61.1 µM; in the test with SR leukemia it was 5.38 µM.

As to `COc1ccc(-c2oc3c(OC)c(OC)c(OC)c(OC)c3c(=O)c2OC)cc1OC`, the TGI was above 100 µM with A498 renal; above 100 µM in the test with DU-145 prostate; 0.0897 µM with HOP-92 NSCLC; above 100 µM in the test on IGROV1 ovarian; above 100 µM in the test on K-562 leukemia; above 100 µM in the test on LOX IMVI melanoma. The TGI with OVCAR-5 ovarian is above 100 µM; in the test with OVCAR-8 ovarian, 93.6 µM; in the test with PC-3 prostate, above 100 µM; with SR leukemia it was 79.9 µM.

As for `Cc1ccc(-c2csc(NC(=O)CN3CCN(c4cc5c(cc4F)c(=O)c(C(=O)O)cn5C4CC4)CC3)n2)cc1`, the GI50 in the test on A498 renal is 1.02 µM; with DU-145 prostate it was 0.513 µM; in the test on HOP-92 NSCLC, 1.13 µM; with IGROV1 ovarian it was 0.739 µM; with K-562 leukemia, 0.771 µM; in the test with LOX IMVI melanoma it was 0.482 µM. Moreover, the GI50 in the test with OVCAR-5 ovarian is 3.48 µM; in the test on OVCAR-8 ovarian, 0.388 µM; with PC-3 prostate, 0.504 µM; in the test on SR leukemia it was 0.645 µM. For the same compound, the TGI with A498 renal is 10.3 µM; in the test on DU-145 prostate it was above 100 µM; in the test with HOP-92 NSCLC, 5.13 µM; in the test on IGROV1 ovarian, 17 µM; in the test with K-562 leukemia, above 100 µM; with LOX IMVI melanoma, 29.2 µM. The TGI is 39.8 µM in the test with OVCAR-5 ovarian, 11.7 µM in the test with OVCAR-8 ovarian, above 100 µM in the test with PC-3 prostate and 6.87 µM in the test on SR leukemia.

As to `COc1ccccc1/C=C/C(=O)c1ccccc1`, the GI50 with A498 renal was 16.3 µM; with DU-145 prostate, 5.23 µM; with HOP-92 NSCLC, 6.3 µM; with IGROV1 ovarian, 2.2 µM; in the test with K-562 leukemia, 3.41 µM; with LOX IMVI melanoma, 2.06 µM. In addition, the GI50 was 18.9 µM in the test with OVCAR-5 ovarian, 11.2 µM in the test on OVCAR-8 ovarian, 5.65 µM in the test on PC-3 prostate and 1.77 µM in the test on SR leukemia. Further, the TGI in the test on A498 renal was 31 µM; with DU-145 prostate, 16.3 µM; in the test on HOP-92 NSCLC, 30.7 µM; in the test with IGROV1 ovarian, 8.7 µM; in the test on K-562 leukemia, above 100 µM; with LOX IMVI melanoma, 5.07 µM. For the same compound, the TGI was 36.5 µM in the test on OVCAR-5 ovarian, 28 µM with OVCAR-8 ovarian and 28 µM with PC-3 prostate.

Consider `CCCOc1ccc2nc(NC(=O)OC)[nH]c2c1`, for which the GI50 with A498 renal is 0.162 µM; with DU-145 prostate, 0.466 µM; in the test with HOP-92 NSCLC it was 0.18 µM; in the test with IGROV1 ovarian, 0.481 µM; in the test on LOX IMVI melanoma, 0.778 µM; in the test with OVCAR-5 ovarian it was 0.441 µM. Moreover, the GI50 with OVCAR-8 ovarian was 0.485 µM; in the test on PC-3 prostate, 0.269 µM; with SR leukemia, 0.0319 µM. In addition, the total growth inhibition concentration (TGI) in the test on A498 renal is 1.46 µM; with HOP-92 NSCLC it was above 100 µM; in the test on IGROV1 ovarian, above 100 µM; in the test with LOX IMVI melanoma it was above 100 µM; with OVCAR-5 ovarian it was above 100 µM; with OVCAR-8 ovarian, above 100 µM. In addition, the TGI in the test on PC-3 prostate and in the test on SR leukemia was above 100 µM throughout.

As to `CC(CCC(=O)O)C(=O)O` (stereo unspecified), the TGI in the test on A498 renal, in the test with DU-145 prostate, in the test on HOP-92 NSCLC, with IGROV1 ovarian, in the test on K-562 leukemia and with LOX IMVI melanoma was above 100 µM throughout. Further, the TGI in the test with OVCAR-5 ovarian, in the test with OVCAR-8 ovarian, with PC-3 prostate and in the test with SR leukemia was above 100 µM throughout.

Consider `CN1C(=O)N(C)C2C1NN=c1s/c(=C\c3ccc(F)cc3)c(=O)n12` (stereo unspecified), for which the GI50 in the test with A498 renal was 1.39 µM; in the test on DU-145 prostate, 3.22 µM; with HOP-92 NSCLC, 8.49 µM; in the test with IGROV1 ovarian, 3.21 µM; in the test on K-562 leukemia, 0.54 µM; in the test with LOX IMVI melanoma, 6.01 µM. The GI50 with OVCAR-5 ovarian is 5.44 µM; in the test with OVCAR-8 ovarian it was 3.78 µM; in the test with PC-3 prostate, 2.33 µM; in the test on SR leukemia it was 0.374 µM. Moreover, the TGI was 6.77 µM with A498 renal; above 100 µM in the test with DU-145 prostate; above 100 µM in the test on HOP-92 NSCLC; above 100 µM in the test with IGROV1 ovarian; above 100 µM in the test with K-562 leukemia; above 100 µM in the test on LOX IMVI melanoma. Further, the TGI in the test on OVCAR-5 ovarian is above 100 µM; in the test on OVCAR-8 ovarian, above 100 µM; in the test with PC-3 prostate it was above 100 µM; in the test with SR leukemia it was 20 µM.

Consider `Cc1[nH]nc(C(=O)n2nc(N)c3ccccc32)c1[N+](=O)[O-]`, for which the GI50 was above 100 µM in the test with A498 renal; above 100 µM with DU-145 prostate; 56.4 µM in the test on HOP-92 NSCLC; 37.5 µM in the test with IGROV1 ovarian; above 100 µM in the test on K-562 leukemia; above 39.5 µM in the test with LOX IMVI melanoma. In addition, the GI50 was above 100 µM with OVCAR-5 ovarian, above 100 µM with OVCAR-8 ovarian, above 100 µM in the test with PC-3 prostate and 26.2 µM in the test on SR leukemia. The concentration for total growth inhibition (TGI) in the test on A498 renal, in the test with DU-145 prostate, in the test on HOP-92 NSCLC, in the test on IGROV1 ovarian, in the test with K-562 leukemia and in the test on LOX IMVI melanoma was above 100 µM each time. Moreover, the TGI in the test on OVCAR-5 ovarian, in the test with OVCAR-8 ovarian, with PC-3 prostate and in the test with SR leukemia was above 100 µM throughout.

In the case of `COc1ccc2cc(-c3c(-c4ccncc4)nc(-c4ccc(S(C)(=O)=O)cc4C)n3C)ccc2c1`, the GI50 with A498 renal was 6.31 µM; with DU-145 prostate, 10.2 µM; in the test on HOP-92 NSCLC, 5.16 µM; in the test with IGROV1 ovarian, 7.47 µM; in the test with K-562 leukemia, 6.88 µM; in the test on LOX IMVI melanoma, 9.01 µM. Moreover, the GI50 with OVCAR-5 ovarian is 14.7 µM; in the test on OVCAR-8 ovarian, 9.01 µM; with PC-3 prostate, 8.35 µM; in the test on SR leukemia, 13 µM. The TGI with A498 renal is above 25 µM; with DU-145 prostate, above 25 µM; in the test on HOP-92 NSCLC, 24.4 µM; in the test on IGROV1 ovarian, above 25 µM; in the test on K-562 leukemia, above 25 µM; in the test with LOX IMVI melanoma, above 25 µM. Besides, the TGI in the test on OVCAR-5 ovarian, in the test on OVCAR-8 ovarian, in the test on PC-3 prostate and with SR leukemia was above 25 µM throughout.
